Reference: article PMC4932617 (Meta Gene, 2016)

Key:
intra-gastric pH = assay: Intra-gastric pH monitoring; assay type: in vivo, human; conditions: for pH on Day 6: n=1; for Difference in intra-gastric pH between baseline and day 6: rapid and ultra-rapid metabolizers (CYP2C19*17 carriers)
[1] = higher in poor than in extensive metabolizers; ref Klotz, 2006; cited from earlier work

| SMILES | Difference in intra-gastric pH between baseline and day 6 (intra-gastric pH; 40 mg/day for 5 days) | AUC in poor metabolizers relative to extensive metabolizers [1] [fold] | also measured |
| --- | --- | --- | --- |
| COc1ccc2nc([S@@+]([O-])Cc3ncc(C)c(OC)c3C)[nH]c2c1 [Esomeprazole] | noteworthy differences could not be observed |  | pH on Day 6 (intra-gastric pH; normal metabolizer, esomeprazole 40 mg/day for 5 days, baseline pH 0.40): 3.40; pH on Day 6 (intra-gastric pH; rapid metabolizer, esomeprazole 40 mg/day for 5 days, baseline pH 1.25): 1.20 |
| COc1ccnc(C[S+]([O-])c2nc3ccc(OC(F)F)cc3[nH]2)c1OC (stereo not drawn) [Pantoprazole] | noteworthy differences could not be observed |  | pH on Day 6 (intra-gastric pH; normal metabolizer, pantoprazole 40 mg/day for 5 days, baseline pH 1.50): 4.10; Gastric acid suppression compared to esomeprazole (intra-gastric pH; poor and intermediate metabolizers, 40 mg/day for 5 days): improved gastric acid suppression |
| Cc1c(OCC(F)(F)F)ccnc1C[S+]([O-])c1nc2ccccc2[nH]1 (stereo not drawn) [lansoprazole] |  | 4.5 |  |
| COc1ccc2[nH]c([S+]([O-])Cc3ncc(C)c(OC)c3C)nc2c1 (stereo not drawn) [omeprazole] |  | 7.5 |  |
| COCCCOc1ccnc(C[S+]([O-])c2nc3ccccc3[nH]2)c1C (stereo not drawn) [rabeprazole] |  | 4 |  |
